The test system of assay [1] is TNFα-induced NFκB reporter activity in CDK8/19 dKO 293 cells. The experiment in a line: NFκB-dependent luciferase reporter cell-based assay in CDK8/19 dKO 293 cells. Details: species or system human. The conditions noted are these: for effect on reporter induction in dKO cells: 293-dKO-NFκB-Luc cells; for IC50: Homo sapiens, read-out: NFkB activity Assay IC50. The protocol: (§1) The lentiviral construct pHAGE-NFkB-TA-LUC-UBC-dTomato was generated by Darrell Kotton […] Parental WT 293 cells or CDK8/19 dKO 293 cells were transduced with the lentivirus and dTomato-positive cells were sorted out using FACS Aria III. Single-cell clones were expanded and tested for luciferase reporter activities under TNFα- and/or senexin B-treated and untreated conditions with Bright-Glo Luciferase Assay System (Promega, Madison, WI, USA).
(§2) On day 1, cells were seeded in polyethyleneimine-coated 96-well plates at the density of 5 × 10^4 cells per well. […] Chemiluminescence intensity of each well was measured with ChemiDoc Touch™ (Bio-Rad) and quantified using ImageLab software (Bio-Rad). The raw data were then further processed with GraphPad Prism 7.0 (GraphPad Software, San Diego, CA, USA) for curve-fitting and IC50 calculation.
A general note: In a reporter assay the amount or activity of a reporter protein is the signal.

The subject of assay [2] is TNFα-induced NFκB reporter activity in WT 293 cells (CDK8/19 inhibition). The experiment in a line: NFκB-dependent luciferase reporter cell-based assay in WT 293 cells. Also on record: species or system human. As to conditions: for extent of inhibition of NFκB-dependent promoter activation: WT cells. The protocol:
as §1, §2

Assay [3] deals with alkaline phosphatase (ALPase) activity in ST2 cells. Also on record: method as in PMID 23453217. The conditions noted are these: concentration enhancing ALPase activity to 200% of the control; cited from earlier work.
Assay [4] deals with IL8 mRNA expression. Briefly: QPCR of TNFα-induced IL8 mRNA in 293 cells and CDK8/19 knockout derivatives. In kind it is cell-based, human. As to conditions: dKO 293 cells; 1 μM senexin B. The protocol: (§3) Cells were seeded in 12-well plates at density of 3 × 10^5 cells per well in regular culture media 24 h before treatment. Cells were first pre-treated with 1 μM senexin B or solvent control DMSO (0.1%) for 1 h and then treated with or without 10 ng/mL TNF-α for 2 h. Total RNA was extracted using RNAeasy Mini Kit (Qiagen, Germantown, MD, USA) and 1 µg of total RNA was used to generate cDNA using iScript cDNA synthesis kit (Bio-Rad). Gene expression was quantified using iTaq Universal SYBR green super mix on the CFX384 Real time system (Bio-Rad). The primers used for real-time PCR were: CXCL1-F, […]; CXCL1-R, […]; IL8-F, […]; IL8-R, […]; RPL13A-F, […] and RPL13A-R, […].

Assay [5] has as its system CXCL1 mRNA expression. The experiment in a line: QPCR of TNFα-induced CXCL1 mRNA in 293 cells and CDK8/19 knockout derivatives. The format is cell-based, human. The conditions noted are these: dKO 293 cells; 1 μM senexin B. The protocol:
as §3

The mark [6] stands for this setting: HEK293, 293-dKO-NFKB-LUC#2, 10 ng/mL TNFα 3 h.
Where [7] appears, read: Homo sapiens, HEK293, 3 h, 293-WT-NFKB-LUC#8, 10 ng/mL TNFα 3 h, read-out: NFkB activity Assay IC50.
The mark [8] stands for this setting: 293-WT-NFKB-LUC#8, 10 ng/mL TNFα 3 h, read-out: NFkB activity Assay IC50.

Molecules are shown by their SMILES. Where two headings read alike, the source gives them in different places.

For the compound `NC(=O)c1sc2nccc(N3CCCN(c4ccccc4)CC3)c2c1N` [15k], in assay [1] (10 ng/mL TNFα 3 h), the “effect on reporter induction in dKO cells” value (“effect on reporter induction” for short) was “none of them showed any activity”.

For orientation: IC50 means the midpoint of a concentration-inhibition curve. Take `CN(C)C/C=C/C(=O)Nc1ccc(C(=O)Nc2cccc(Nc3ncc(Cl)c(-c4c[nH]c5ccccc45)n3)c2)cc1` [THZ1]: the IC50 amounted to 352 nM in assay [1] (setting [6]) and 220 nM in assay [2] (setting [7]). In addition, the “extent of inhibition of NFκB-dependent promoter activation” value in assay [1] (dKO cells, 10 ng/mL TNFα 3 h) was “completely inhibited”; in assay [2] (10 ng/mL TNFα 3 h), “completely inhibited”.

For the compound `CN(C)C(=O)Cc1ccc(N2CCCN(c3ccnc4sc(C(N)=O)c(N)c34)CC2)cc1` [15w], the “effect on reporter induction” value in assay [1] (10 ng/mL TNFα 3 h) was “none of them showed any activity”. The results for the IC50 in assay [1] (setting [6]), in assay [2] (setting [8]) and in assay [2] (setting [7]) were more than 1000 nM, 4 nM and 4.1 nM, respectively. Moreover, the “ALP activity Assay EC200” value in assay [3] is 6.6 nM.

Regarding `Cc1ccc(S(=O)(=O)N[C@@H](Cc2ccccc2)C(=O)CCl)cc1` [TPCK, tosyl-L-phenylalanyl-chloromethane ketone], the IC50 in assay [1] (setting [6]) is 12000 nM; in assay [2] (setting [7]), 13000 nM. For the same compound, the “extent of inhibition of NFκB-dependent promoter activation” value in assay [1] (dKO cells, 10 ng/mL TNFα 3 h) is recorded as “complete suppression”; in assay [2] (10 ng/mL TNFα 3 h), “complete suppression”.

For the compound `CN1CCN(C(=O)c2ccc3cc(CCNc4ncnc5ccc(C#N)cc45)ccc3c2)CC1` [senexin B], the “inhibitory effect on TNFα induction of IL8” value in assay [4] is reported as “completely abolished”. Further, the IC50 is more than 1000 nM in assay [1] (setting [6]); 114 nM in assay [2] (setting [7]); 95 nM in assay [2] (Homo sapiens, HEK293, 3 h, clone WT-#1, 10 ng/mL TNFα 3 h, read-out: IC50 for inhibition of TNFα-induced luciferase expression); 135 nM in assay [2] (Homo sapiens, HEK293, 3 h, clone WT-#2, 10 ng/mL TNFα 3 h, read-out: IC50 for inhibition of TNFα-induced luciferase expression); 187 nM in assay [2] (Homo sapiens, HEK293, 3 h, clone WT-#9, 10 ng/mL TNFα 3 h, read-out: IC50 for inhibition of TNFα-induced luciferase expression). In addition, the “inhibition of TNFα-induced luciferase induction” value in assay [1] (dKO cells, 1 μM senexin B, 10 ng/mL TNFα) is “not in dKO cells”. Also, in assay [5], the “inhibitory effect on TNFα induction of CXCL1” value was “completely abolished”. Also, in assay [2] (all the WT clones, 1 μM senexin B), the “inhibition of TNFα-induced luciferase expression” value is on record as 70–80%.

Take `CN1CC[C@H](c2c(O)cc(O)c3c(=O)cc(-c4ccccc4Cl)oc23)[C@H](O)C1` [Flavopiridol]: the IC50 in assay [1] (setting [6]) is 26 nM; in assay [2] (setting [7]) it was 34 nM. Further, the “extent of inhibition of NFκB-dependent promoter activation” value in assay [1] (dKO cells, 10 ng/mL TNFα 3 h) is on record as “completely inhibited”; in assay [2] (10 ng/mL TNFα 3 h), “completely inhibited”.

For `CC(=O)c1c(C)c2cnc(Nc3ccc(N4CCNCC4)cn3)nc2n(C2CCCC2)c1=O` [Palbociclib, palbociclib], the IC50 in assay [1] (setting [6]) and in assay [2] (setting [7]) was more than 2000 nM each time. In addition, the “extent of inhibition of NFκB-dependent promoter activation” value is recorded as “only weak inhibitory effects at high concentrations” in assay [1] (dKO cells, 10 ng/mL TNFα 3 h) and “only weak inhibitory effects at high concentrations” in assay [2] (10 ng/mL TNFα 3 h).

`CCc1cnn2c(NCc3ccc[n+]([O-])c3)cc(N3CCCC[C@H]3CCO)nc12` [Dinaciclib]: the “extent of inhibition of NFκB-dependent promoter activation” value in assay [1] (dKO cells, 10 ng/mL TNFα 3 h) is given as “completely inhibited”; in assay [2] (10 ng/mL TNFα 3 h) it was “completely inhibited”.

Turning to `COc1ccc(N2CCCN(c3ccnc4sc(C(N)=O)c(N)c34)CC2)cc1` [15q], in assay [3], the “ALP activity Assay EC200” value was 88.1 nM. The IC50 in assay [2] (setting [7]) stood at 37.8 nM.

For `CC(C)C[C@H](NC(=O)[C@H](Cc1ccccc1)NC(=O)c1cnccn1)B(O)O` [Bortezomib, bortezomib], the IC50 in assay [1] (setting [6]) came to 173 nM; in assay [2] (setting [7]), 311 nM.

Consider `CN(C)C(=O)c1ccc(N2CCCN(c3ccnc4sc(C(N)=O)c(N)c34)CC2)cc1` [15u], for which, in assay [1] (10 ng/mL TNFα 3 h), the “effect on reporter induction” value is listed as “none of them showed any activity”. For the same compound, the IC50 in assay [1] (setting [6]) was more than 1000 nM; in assay [2] (setting [8]) it was 10 nM; in assay [2] (setting [7]), 10.3 nM. Also, the “ALP activity Assay EC200” value in assay [3] is 31.9 nM.

Turning to `CNC(=O)c1ccc(N2CCCN(c3ccnc4sc(C(N)=O)c(N)c34)CC2)cc1` [15v], the “ALP activity Assay EC200” value in assay [3] is on record as 54.2 nM. In assay [2] (setting [7]), the IC50 was determined as 23.1 nM.

With `Cc1ccc(N2CCCN(c3ccnc4sc(C(N)=O)c(N)c34)CC2)cc1` [15n], the “ALP activity Assay EC200” value in assay [3] is given as 115.4 nM. Further, the IC50 in assay [2] (setting [7]) was 43.1 nM.

As to `CN(C)C1CC23CCC4(O2)C(=CCC2(C)C(c5ccc6ccncc6c5)=CCC24)C=C3C(O)C1O` (centres unmarked) [dCA, didehydro-cortistatin A], the “effect on reporter induction” value in assay [1] (10 ng/mL TNFα 3 h) is recorded as “no effect”. Also, the IC50 in assay [1] (HEK293, 3 h) was more than 1000 nM; in assay [2] (Homo sapiens, HEK293, 3 h, read-out: NFkB activity Assay IC50), 1.3 nM. For the same compound, the “maximal (plateau) inhibition of TNFα-induced reporter induction” value in assay [2] (WT reporter cells, 10 ng/mL TNFα 3 h) is on record as ~ 80%.

The record behind these values is paper PMC6830309, “Characterizing CDK8/19 Inhibitors through a NFκB-Dependent Cell-Based Assay” (Cells, 2019).
